Experimental data taken from patent US7250410B2, “Cyclic nucleotide phosphodiesterase inhibitors, preparation and uses thereof” (Via Pharmaceuticals, Inc., priority 2001, dated 2007).
Where “and” joins values, the source holds several entries; their conditions need not be identical. Equal values may be shown once.

Each compound was assayed against PDE4 (assay: Inhibition of PDE4, radioenzymatic phosphodiesterase assay). Conditions: Table 1, formula (III); 1 μM cyclic AMP.
Assay type: biochemical, bovine
Protocol: A 3 g segment of bovine aortic media cut into pieces with scissors was homogenized with an ultra-turrax then a potter glass/glass homogenizer in 7 volumes by weight of buffer A containing a protease inhibitor cocktail (20 mM Tris-HCl, 0.25 M saccharose, 2 mM magnesium acetate, 1 mM dithiothreitol, 5 mM EGTA, 2000 U/ml aprotinin, 10 mg/l leupeptin and 10 mg/l soya trypsic inhibitor). The homogenizate was centrifuged at 105,000 g for 1 hour. […] The column was washed until there was no detectable absorption at 280 nm, then eluted with a linear gradient of NaCl (0–0.5 M) in buffer B. 3-ml fractions were collected and enzyme activity was determined under the conditions described hereinafter to localize the different enzymes PDE1, PDE3, PDE4 and PDE5, which were aliquoted and frozen at −80° C.
The nucleoside formed was separated from the nucleotides by anion exchange chromatography. Nucleoside radioactivity was determined by liquid scintillation counting.

Row | Compound | IC50 [nM]
1 | COc1cc2c(cc1OC)C(c1ccc(-c3ccc(C)cc3)cc1)=NN(C)C(=O)C2 [IIIas, 7,8-dimethoxy-3-methyl-1-[4-(4-methylphenyl)phenyl]-3,5-dihydro-4H-2,3-benzodiazepin-4-one] | 2900
2 | COc1cc2c(cc1OC)C(c1ccc(-c3ccccc3OC)cc1)=NN(C)C(=O)C2 [IIIai, 7,8-dimethoxy-1-[4-(2-methoxyphenyl)phenyl]-3-methyl-3,5-dihydro-4H-2,3-benzodiazepin-4-one] | 1800

Same assay, conditions: Table 1, formula (III); compound at 10 μM

Row | Compound | PDE4 percentage inhibition at 10 μM [%]
3 | CCCN1N=C(c2ccccc2)c2cc(OC)c(OC)cc2CC1=O [IIIaf, 7,8-dimethoxy-1-phenyl-3-n-propyl-3,5-dihydro-4H-2,3-benzodiazepin-4-one] | 30

Same assay, conditions: Table 2, formula (XXII); 1 μM cyclic AMP

Row | Compound | IC50 [nM]
4 | COc1cc2c(cc1OC)C(c1ccccc1)=NC(c1ccccc1)C(=O)N2 (stereo not drawn) [XXIIaz, 7,8-dimethoxy-3,5-diphenyl-1,3-dihydro-2H-1,4-benzodiazepin-2-one] | 9500

Same assay, conditions: Table 2, formula (XXII); compound at 10 μM

Row | Compound | PDE4 percentage inhibition at 10 μM [%]
5 | O=C1CN=C(c2cccc(C(F)(F)F)c2)c2cc(I)ccc2N1 [XXIIac, 7-iodo-5-[3-(trifluoromethyl)phenyl]-1,3-dihydro-2H-1,4-benzodiazepin-2-one] | 35
6 | COc1cc2c(cc1OC)C(c1ccccc1Br)=NCC(=O)N2 [XXIIal, 5-(2-bromophenyl)-7,8-dimethoxy-1,3-dihydro-2H-1,4-benzodiazepin-2-one] | 23.9
7 | COc1cc2c(cc1OC)C(c1ccccc1)=NC(Cc1c[nH]cn1)C(=O)N2 (stereo not drawn) [XXIIar, 7,8-dimethoxy-3-(1H-imidazol-4-ylmethyl)-5-phenyl-1,3-dihydro-2H-1,4-benzodiazepin-2-one] | 49.3
8 | COc1cc2c(cc1OC)C(c1ccccc1)=NC(Cc1ccccc1)C(=O)N2 (stereo not drawn) [XXIIap, 3-benzyl-7,8-dimethoxy-5-phenyl-1,3-dihydro-2H-1,4-benzodiazepin-2-one] | 36.10
9 | COc1cc2c(cc1OC)C(c1ccccc1)=N[C@@H](CCCCNC(=N)N)C(=O)N2.O=C(O)C(F)(F)F.O=C(O)C(F)(F)F [XXIIay, N-[4-(7,8-dimethoxy-2-oxo-5-phenyl-2,3-dihydro-1H-1,4-benzodiazepin-3-yl)butyl]guanidinium (S)-bis trifluoroacetate] | 19.6
10 | O=C1CN=C(c2ccc(Br)cc2)c2ccc(Br)cc2N1 [XXIIab, 8-bromo-5-(4-bromophenyl)-1,3-dihydro-2H-1,4-benzodiazepin-2-one] | 10

Same assay, conditions: Table 3, formula (II); 1 μM cyclic AMP

Row | Compound | IC50
11 | CCN1C(=O)CN=C(c2ccc(C#CCNC(=O)OC(C)(C)C)cc2)c2cc(OC)c(OC)cc21 [IIbo, tert-butyl 3-[4-(1-ethyl-7,8-dimethoxy-2-oxo-2,3-dihydro-1H-1,4-benzodiazepin-5-yl)phenyl]prop-2-ynylcarbamate] | 2920 nM
12 | CCOc1cc2c(cc1OC)C(c1ccccc1)=NC(Cc1ccccc1C#N)C(=O)N2C (stereo not drawn) [IIdg, 2-[(8-ethoxy-7-methoxy-1-methyl-2-oxo-5-phenyl-2,3-dihydro-1H-1,4-benzodiazepin-3-yl)methyl]benzonitrile] | 1100 nM
13 | CCOc1cc2c(cc1OCC)N(CC)C(=O)C(Cc1ccccc1)N=C2c1ccccc1 (stereo not drawn) [IIcv, 3-benzyl-7,8-diethoxy-1-ethyl-5-phenyl-1,3-dihydro-2H-1,4-benzodiazepin-2-one] | 3100 nM
14 | CCN1C(=O)C(Cc2ccccc2N)N=C(c2ccccc2)c2cc(OC)c(OC)cc21 (stereo not drawn) [IIca, 7,8-dimethoxy-1-ethyl-3-(2-aminobenzyl)-5-phenyl-1,3-dihydro-2H-1,4-benzodiazepin-2-one] | 2500 nM
15 | CCOc1cc2c(cc1OCC)N(Cc1ccccc1)C(=O)CN=C2c1ccccc1 [IIbj, 1-benzyl-7,8-diethoxy-5-phenyl-1,3-dihydro-2H-1,4-benzodiazepin-2-one] | 6500 nM
16 | CCN1C(=O)C(Cc2cccc(C#N)c2)N=C(c2ccccc2)c2cc(OC)c(OC)cc21 (stereo not drawn) [IIcp, 3-[(1-ethyl-7,8-dimethoxy-2-oxo-5-phenyl-2,3-dihydro-1H-1,4-benzodiazepin-3-yl)methyl]benzonitrile] | 9200 nM
17 | COc1cc2c(cc1OC)C(c1ccccc1)=NC(c1ccccc1CCNC(C)=O)C(=O)N2 (stereo not drawn) [IIcm, N-[2-(7,8-dimethoxy-2-oxo-5-phenyl-2,3-dihydro-1H-1,4-benzodiazepin-3-yl)benzyl]methylacetamide] | 1900 nM
18 | CCN1C(=O)C(Cc2ccccc2Cl)N=C(c2ccccc2)c2cc(OC)c(OC)cc21 (stereo not drawn) [IIcy, 3-(2-chlorobenzyl)-1-ethyl-7,8-dimethoxy-5-phenyl-1,3-dihydro-2H-1,4-benzodiazepin-2-one] | 2800 nM
19 | COc1cc2c(cc1OC)N(C)C(=O)CN=C2c1ccc2cc(OCc3ccccc3)ccc2c1 [IIao, 5-(6-benzyloxy-2-naphthyl)-7,8-dimethoxy-1-methyl-1,3-dihydro-1,4-benzodiazepin-2-one] | 1600 nM
20 | CCN1C(=O)C(C(O)c2cccc(Br)c2)N=C(c2ccccc2)c2cc(OC)c(OC)cc21 (stereo not drawn) [IIch, 3-[(3-bromophenyl)(hydroxy)methyl]-1-ethyl-7,8-dimethoxy-5-phenyl-1,3-dihydro-2H-1,4-benzodiazepin-2-one] | 9600 nM
21 | CCN1C(=O)CN=C(c2ccc(CCc3ccccc3)cc2)c2cc(OC)c(OC)cc21 [IIbu, 1-ethyl-7,8-dimethoxy-5-[4-(2-phenylethyl)phenyl]-1,3-dihydro-2H-1,4-benzodiazepin-2-one] | 12400 nM and 18700 nM

Same assay, conditions: Table 3, formula (II); compound at 10 μM

Row | Compound | PDE4 percentage inhibition at 10 μM [%]
22 | COc1cc2c(cc1OC)N(C)C(=O)CN=C2c1ccc(C(C)=O)cc1 [IIai, 5-(4-acetylphenyl)-7,8-dimethoxy-1-methyl-1,3-dihydro-1,4-benzodiazepin-2-one] | 39
23 | COc1cc2c(cc1OC)N(C)C(=O)CN=C2c1ccncc1 [IIae, 7,8-dimethoxy-1-methyl-5-(4-pyridyl)-1,3-dihydro-2H-1,4-benzodiazepin-2-one] | 3.4
24 | C=CCC1N=C(c2ccccc2)c2cc(OC)c(OC)cc2N(CC)C1=O (stereo not drawn) [IIbs, 3-allyl-1-ethyl-7,8-dimethoxy-5-phenyl-1,3-dihydro-2H-1,4-benzodiazepin-2-one] | 38.8
25 | COc1cc2c(cc1OC)N(C)C(=O)CN=C2c1ccccc1C [IIau, 7,8-dimethoxy-1-methyl-5-(2-methylphenyl)-1,3-dihydro-1,4-benzodiazepin-2-one] | 18.5
26 | COc1cc2c(cc1OC)N(C)C(=O)CN=C2c1ccco1 [IIah, 5-(2-furyl)-7,8-dimethoxy-1-methyl-1,3-dihydro-1,4-benzodiazepin-2-one] | 36
27 | COc1cc2c(cc1OC)N(C)C(=O)CN=C2C#Cc1ccccc1 [IIat, 7,8-dimethoxy-1-methyl-5-(2-phenylethynyl)-1,3-dihydro-2H-1,4-benzodiazepin-2-one] | 3.9
28 | CCOC(=O)CN1C(=O)CN=C(c2ccccc2)c2cc(OCC)c(OCC)cc21 [IIbi, ethyl (7,8-diethoxy-2-oxo-5-phenyl-2,3-dihydro-1H-1,4-benzodiazepin-1-yl)acetate] | 23.1
29 | C#CCC1N=C(c2ccccc2)c2cc(OC)c(OC)cc2N(CC)C1=O (stereo not drawn) [IIbt, 1-ethyl-7,8-dimethoxy-5-phenyl-3-prop-2-ynyl-1,3-dihydro-2H-1,4-benzodiazepin-2-one] | 38.4
30 | COc1cc2c(cc1OC)N(C)C(=O)CN=C2N1CCCCC1 [IIar, 7,8-dimethoxy-1-methyl-5-(piperidin-1-yl)-1,3-dihydro-1,4-benzodiazepin-2-one] | 0
31 | CCN1C(=O)C(Cc2cccc(CN)c2)N=C(c2ccccc2)c2cc(OC)c(OC)cc21 (stereo not drawn) [IIct, 3-[3-(aminomethyl)benzyl]-1-ethyl-7,8-dimethoxy-5-phenyl-1,3-dihydro-2H-1,4-benzodiazepin-2-one] | 18
32 | COc1ccc2cc(C3=NCC(=O)N(C)c4cc(OC)c(OC)cc43)ccc2c1 [IIap, 7,8-dimethoxy-5-(6-methoxy-2-naphthyl)-1-methyl-1,3-dihydro-1,4-benzodiazepin-2-one] | 18
33 | COc1cc2c(cc1OC)C(c1ccccc1)=NC(c1ccccc1CNC(C)=O)C(=O)N2 (stereo not drawn) [IIcf, N-[2-(7,8-dimethoxy-2-oxo-5-phenyl-2,3-dihydro-1H-1,4-benzodiazepin-3-yl)benzyl]acetamide] | 21
34 | CCCN1C(=O)CN=C(c2ccccc2)c2cc(OC)c(OC)cc21 [IIbe, 7,8-dimethoxy-5-phenyl-1-propyl-1,3-dihydro-2H-1,4-benzodiazepin-2-one] | 34.7
35 | CCN1C(=O)C(Cc2ccc(Br)cc2)N=C(c2ccccc2)c2cc(OC)c(OC)cc21 (stereo not drawn) [IIcd, 3-(4-bromobenzyl)-1-ethyl-7,8-dimethoxy-5-phenyl-1,3-dihydro-2H-1,4-benzodiazepin-2-one] | 20.1
36 | COc1cc2c(cc1OC)N(C)C(=O)CN=C2c1ccccc1OC [IIam, 7,8-dimethoxy-5-(2-methoxyphenyl)-1-methyl-1,3-dihydro-1,4-benzodiazepin-2-one] | 20
